Reference: ChEMBL document CHEMBL5058649, “Data for DCP probe BAY 1816032” (2022)
The source made the active and inactive calls. No cut-off for these calls is given here.

Legend:
[1] = target: Serine/threonine-protein kinase SBK1 (Homo sapiens) (UniProt Q52WX2); assay: SBK1 DiscoveRx kinase panel; details: Compound concentration 1.0 uM
[2] = target: Tyrosine-protein kinase Fgr (Homo sapiens) (UniProt P09769); assay: FGR DiscoveRx kinase panel; details: Compound concentration 1.0 uM
[3] = target: Serine/threonine-protein kinase 25 (Homo sapiens) (UniProt O00506); assay: YSK1 DiscoveRx kinase panel; details: Compound concentration 1.0 uM
[4] = target: Serine/threonine-protein kinase STK11 (Homo sapiens) (UniProt Q15831); assay: LKB1 DiscoveRx kinase panel; details: Compound concentration 1.0 uM
[5] = target: Megakaryocyte-associated tyrosine-protein kinase (Homo sapiens) (UniProt P42679); assay: CTK DiscoveRx kinase panel; details: Compound concentration 1.0 uM
[6] = target: Proto-oncogene tyrosine-protein kinase ROS (Homo sapiens) (UniProt P08922); assay: ROS1 DiscoveRx kinase panel; details: Compound concentration 1.0 uM
[7] = target: Serine/threonine-protein kinase BRSK2 (Homo sapiens) (UniProt Q8IWQ3); assay: BRSK2 DiscoveRx kinase panel; details: Compound concentration 1.0 uM
[8] = target: D(2) dopamine receptor (Homo sapiens) (UniProt P14416); details: Compound concentration 10.0 uM
[9] = target: Homeodomain-interacting protein kinase 4 (Homo sapiens) (UniProt Q8NE63); assay: HIPK4 DiscoveRx kinase panel; details: Compound concentration 1.0 uM
[10] = target: Membrane-associated tyrosine- and threonine-specific cdc2-inhibitory kinase (Homo sapiens) (UniProt Q99640); assay: PKMYT1 DiscoveRx kinase panel; details: Compound concentration 1.0 uM
[11] = target: Epidermal growth factor receptor (Homo sapiens) (UniProt P00533); assay: EGFR DiscoveRx kinase panel; details: Compound concentration 1.0 uM
[12] = target: 5-hydroxytryptamine receptor 1B (Homo sapiens) (UniProt P28222); assay: Serotonin (5-Hydroxytryptamine) 5-HT1B Eurofins-Panlabs radioligand binding assay; design: ligand concentration 1 nM; details: Compound concentration 10.0 uM
[13] = target: Mast/stem cell growth factor receptor Kit (Homo sapiens) (UniProt P10721); assay: KIT DiscoveRx kinase panel; details: Compound concentration 1.0 uM
[14] = target: Ephrin type-A receptor 1 (Homo sapiens) (UniProt P21709); assay: EPHA1 DiscoveRx kinase panel; details: Compound concentration 1.0 uM
Sequence of Ephrin type-A receptor 1 (Homo sapiens) (P21709 whole entry): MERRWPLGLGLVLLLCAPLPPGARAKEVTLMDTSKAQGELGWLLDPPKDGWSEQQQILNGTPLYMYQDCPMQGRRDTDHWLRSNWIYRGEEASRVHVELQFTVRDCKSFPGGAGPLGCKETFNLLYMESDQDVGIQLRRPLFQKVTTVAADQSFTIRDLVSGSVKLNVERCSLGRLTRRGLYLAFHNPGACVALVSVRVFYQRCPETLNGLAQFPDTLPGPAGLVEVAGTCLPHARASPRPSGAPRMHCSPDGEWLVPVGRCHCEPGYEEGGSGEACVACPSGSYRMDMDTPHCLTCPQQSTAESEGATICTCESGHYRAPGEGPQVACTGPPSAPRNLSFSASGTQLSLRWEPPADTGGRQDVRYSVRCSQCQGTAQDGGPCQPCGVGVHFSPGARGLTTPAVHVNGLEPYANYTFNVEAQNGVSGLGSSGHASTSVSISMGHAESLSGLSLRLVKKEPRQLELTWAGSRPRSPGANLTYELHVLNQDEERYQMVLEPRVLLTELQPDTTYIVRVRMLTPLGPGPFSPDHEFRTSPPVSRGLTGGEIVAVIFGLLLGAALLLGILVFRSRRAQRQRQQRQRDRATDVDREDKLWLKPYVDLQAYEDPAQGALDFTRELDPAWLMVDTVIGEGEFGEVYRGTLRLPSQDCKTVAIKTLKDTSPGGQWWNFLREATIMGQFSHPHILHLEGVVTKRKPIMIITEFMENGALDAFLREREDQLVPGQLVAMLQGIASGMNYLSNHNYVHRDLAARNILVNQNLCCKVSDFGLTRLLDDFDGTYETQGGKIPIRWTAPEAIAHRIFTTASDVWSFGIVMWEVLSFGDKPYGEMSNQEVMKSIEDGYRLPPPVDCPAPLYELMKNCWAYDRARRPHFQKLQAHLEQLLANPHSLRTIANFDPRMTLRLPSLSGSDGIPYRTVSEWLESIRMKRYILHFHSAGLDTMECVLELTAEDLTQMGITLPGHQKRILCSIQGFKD

[15] = target: Cyclin-dependent kinase 16 (Homo sapiens) (UniProt Q00536); assay: PCTK1 DiscoveRx kinase panel; details: Compound concentration 1.0 uM
Sequence of Cyclin-dependent kinase 16 (Homo sapiens) (Q00536 whole entry): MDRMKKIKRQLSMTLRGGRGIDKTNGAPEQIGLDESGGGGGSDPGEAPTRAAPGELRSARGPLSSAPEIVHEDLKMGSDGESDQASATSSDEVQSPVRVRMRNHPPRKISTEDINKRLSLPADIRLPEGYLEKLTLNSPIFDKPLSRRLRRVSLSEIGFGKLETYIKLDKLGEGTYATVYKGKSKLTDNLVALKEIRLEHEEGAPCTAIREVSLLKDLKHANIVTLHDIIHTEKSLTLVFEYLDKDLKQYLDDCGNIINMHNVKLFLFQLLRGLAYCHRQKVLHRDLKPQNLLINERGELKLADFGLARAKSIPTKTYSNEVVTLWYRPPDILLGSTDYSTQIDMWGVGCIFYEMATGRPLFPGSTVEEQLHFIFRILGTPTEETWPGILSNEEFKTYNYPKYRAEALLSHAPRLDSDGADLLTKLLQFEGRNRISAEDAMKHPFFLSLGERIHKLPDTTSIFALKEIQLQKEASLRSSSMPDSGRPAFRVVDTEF

[16] = target: 1-phosphatidylinositol 3-phosphate 5-kinase (Homo sapiens) (UniProt Q9Y2I7); assay: PIKFYVE DiscoveRx kinase panel; details: Compound concentration 1.0 uM
[17] = target: Serine/threonine-protein kinase pim-3 (Homo sapiens) (UniProt Q86V86); assay: PIM3 DiscoveRx kinase panel; details: Compound concentration 1.0 uM
[18] = target: BDNF/NT-3 growth factors receptor (Homo sapiens) (UniProt Q16620); assay: TRKB DiscoveRx kinase panel; details: Compound concentration 1.0 uM
[19] = target: Non-receptor tyrosine-protein kinase TYK2 (Homo sapiens) (UniProt P29597); assay: TYK2(JH2domain-pseudokinase) DiscoveRx kinase panel; details: Compound concentration 1.0 uM
[20] = target: Mitogen-activated protein kinase kinase kinase 7 (Homo sapiens) (UniProt O43318); assay: TAK1 DiscoveRx kinase panel; details: Compound concentration 1.0 uM
[21] = target: Tyrosine-protein kinase HCK (Homo sapiens) (UniProt P08631); assay: HCK DiscoveRx kinase panel; details: Compound concentration 1.0 uM
[22] = target: Serine/threonine-protein kinase D3 (Homo sapiens) (UniProt O94806); assay: PRKD3 DiscoveRx kinase panel; details: Compound concentration 1.0 uM
Sequence of Serine/threonine-protein kinase D3 (Homo sapiens) (O94806 whole entry): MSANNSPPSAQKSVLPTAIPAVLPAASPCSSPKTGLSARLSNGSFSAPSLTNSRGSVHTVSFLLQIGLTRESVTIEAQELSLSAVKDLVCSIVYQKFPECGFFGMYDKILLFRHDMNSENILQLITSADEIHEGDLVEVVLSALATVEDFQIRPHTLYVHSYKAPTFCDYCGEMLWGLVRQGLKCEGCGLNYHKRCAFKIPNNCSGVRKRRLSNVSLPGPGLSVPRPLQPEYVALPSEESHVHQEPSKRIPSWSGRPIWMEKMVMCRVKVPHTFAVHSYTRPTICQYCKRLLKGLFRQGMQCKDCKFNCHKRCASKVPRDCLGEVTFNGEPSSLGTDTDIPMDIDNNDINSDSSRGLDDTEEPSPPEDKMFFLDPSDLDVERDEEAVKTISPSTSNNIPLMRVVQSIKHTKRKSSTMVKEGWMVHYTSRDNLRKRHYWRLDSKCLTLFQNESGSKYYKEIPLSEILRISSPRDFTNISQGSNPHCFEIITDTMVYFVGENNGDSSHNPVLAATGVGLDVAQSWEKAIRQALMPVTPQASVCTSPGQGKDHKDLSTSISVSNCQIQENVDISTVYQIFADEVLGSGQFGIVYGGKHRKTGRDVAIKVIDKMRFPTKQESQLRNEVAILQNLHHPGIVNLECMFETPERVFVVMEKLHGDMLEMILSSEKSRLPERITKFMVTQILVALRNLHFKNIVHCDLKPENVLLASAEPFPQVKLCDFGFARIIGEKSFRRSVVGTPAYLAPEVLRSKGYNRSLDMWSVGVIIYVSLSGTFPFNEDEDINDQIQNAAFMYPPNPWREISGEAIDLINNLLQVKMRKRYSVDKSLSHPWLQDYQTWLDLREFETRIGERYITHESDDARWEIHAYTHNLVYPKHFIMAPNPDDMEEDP

[23] = target: 5'-AMP-activated protein kinase catalytic subunit alpha-1 (Homo sapiens) (UniProt Q13131); assay: AMPK-alpha1 DiscoveRx kinase panel; details: Compound concentration 1.0 uM
[24] = target: Serine/threonine-protein kinase DCLK1 (Homo sapiens) (UniProt O15075); assay: DCAMKL1 DiscoveRx kinase panel; details: Compound concentration 1.0 uM
[25] = target: NUAK family SNF1-like kinase 1 (Homo sapiens) (UniProt O60285); assay: ARK5 DiscoveRx kinase panel; details: Compound concentration 1.0 uM
[26] = target: Insulin receptor-related protein (Homo sapiens) (UniProt P14616); assay: INSRR DiscoveRx kinase panel; details: Compound concentration 1.0 uM
Sequence of Insulin receptor-related protein (Homo sapiens) (P14616 27-742 limits assumed): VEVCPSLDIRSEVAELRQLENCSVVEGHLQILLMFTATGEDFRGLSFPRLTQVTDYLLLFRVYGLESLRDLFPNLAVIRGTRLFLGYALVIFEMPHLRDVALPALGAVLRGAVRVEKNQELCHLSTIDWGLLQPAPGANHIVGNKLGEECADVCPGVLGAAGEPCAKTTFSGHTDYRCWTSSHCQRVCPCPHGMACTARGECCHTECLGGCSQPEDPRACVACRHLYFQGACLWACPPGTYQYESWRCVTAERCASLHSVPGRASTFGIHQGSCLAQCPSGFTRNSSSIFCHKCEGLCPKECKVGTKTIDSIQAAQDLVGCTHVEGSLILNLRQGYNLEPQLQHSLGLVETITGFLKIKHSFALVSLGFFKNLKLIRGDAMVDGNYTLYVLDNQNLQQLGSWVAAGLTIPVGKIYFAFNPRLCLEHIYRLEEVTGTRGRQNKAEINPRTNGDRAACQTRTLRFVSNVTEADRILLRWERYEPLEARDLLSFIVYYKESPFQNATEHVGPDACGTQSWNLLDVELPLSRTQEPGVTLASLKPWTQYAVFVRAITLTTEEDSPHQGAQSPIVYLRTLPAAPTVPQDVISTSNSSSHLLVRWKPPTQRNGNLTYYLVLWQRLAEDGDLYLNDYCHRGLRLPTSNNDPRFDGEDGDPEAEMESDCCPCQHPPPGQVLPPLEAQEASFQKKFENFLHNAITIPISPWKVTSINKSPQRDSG
Sequence of Insulin receptor-related protein (Homo sapiens) (P14616 747-1297 limits assumed): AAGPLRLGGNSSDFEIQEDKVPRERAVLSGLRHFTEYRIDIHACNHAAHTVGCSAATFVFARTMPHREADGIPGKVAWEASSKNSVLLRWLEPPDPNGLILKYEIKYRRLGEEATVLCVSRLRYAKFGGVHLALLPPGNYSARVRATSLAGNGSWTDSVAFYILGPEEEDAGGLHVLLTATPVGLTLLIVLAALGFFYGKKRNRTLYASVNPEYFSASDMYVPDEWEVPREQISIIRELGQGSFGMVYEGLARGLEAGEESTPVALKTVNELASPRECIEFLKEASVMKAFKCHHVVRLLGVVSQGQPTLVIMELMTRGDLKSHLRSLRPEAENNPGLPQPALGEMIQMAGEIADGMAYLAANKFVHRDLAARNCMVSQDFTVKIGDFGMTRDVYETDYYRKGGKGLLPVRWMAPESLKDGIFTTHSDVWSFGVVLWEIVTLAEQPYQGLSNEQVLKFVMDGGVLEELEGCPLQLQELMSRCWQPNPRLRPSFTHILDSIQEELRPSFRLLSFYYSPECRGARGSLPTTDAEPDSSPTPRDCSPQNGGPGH

[27] = target: Serine/threonine-protein kinase TAO2 (Homo sapiens) (UniProt Q9UL54); assay: TAOK2 DiscoveRx kinase panel; details: Compound concentration 1.0 uM
Sequence of Serine/threonine-protein kinase TAO2 (Homo sapiens) (Q9UL54 whole entry): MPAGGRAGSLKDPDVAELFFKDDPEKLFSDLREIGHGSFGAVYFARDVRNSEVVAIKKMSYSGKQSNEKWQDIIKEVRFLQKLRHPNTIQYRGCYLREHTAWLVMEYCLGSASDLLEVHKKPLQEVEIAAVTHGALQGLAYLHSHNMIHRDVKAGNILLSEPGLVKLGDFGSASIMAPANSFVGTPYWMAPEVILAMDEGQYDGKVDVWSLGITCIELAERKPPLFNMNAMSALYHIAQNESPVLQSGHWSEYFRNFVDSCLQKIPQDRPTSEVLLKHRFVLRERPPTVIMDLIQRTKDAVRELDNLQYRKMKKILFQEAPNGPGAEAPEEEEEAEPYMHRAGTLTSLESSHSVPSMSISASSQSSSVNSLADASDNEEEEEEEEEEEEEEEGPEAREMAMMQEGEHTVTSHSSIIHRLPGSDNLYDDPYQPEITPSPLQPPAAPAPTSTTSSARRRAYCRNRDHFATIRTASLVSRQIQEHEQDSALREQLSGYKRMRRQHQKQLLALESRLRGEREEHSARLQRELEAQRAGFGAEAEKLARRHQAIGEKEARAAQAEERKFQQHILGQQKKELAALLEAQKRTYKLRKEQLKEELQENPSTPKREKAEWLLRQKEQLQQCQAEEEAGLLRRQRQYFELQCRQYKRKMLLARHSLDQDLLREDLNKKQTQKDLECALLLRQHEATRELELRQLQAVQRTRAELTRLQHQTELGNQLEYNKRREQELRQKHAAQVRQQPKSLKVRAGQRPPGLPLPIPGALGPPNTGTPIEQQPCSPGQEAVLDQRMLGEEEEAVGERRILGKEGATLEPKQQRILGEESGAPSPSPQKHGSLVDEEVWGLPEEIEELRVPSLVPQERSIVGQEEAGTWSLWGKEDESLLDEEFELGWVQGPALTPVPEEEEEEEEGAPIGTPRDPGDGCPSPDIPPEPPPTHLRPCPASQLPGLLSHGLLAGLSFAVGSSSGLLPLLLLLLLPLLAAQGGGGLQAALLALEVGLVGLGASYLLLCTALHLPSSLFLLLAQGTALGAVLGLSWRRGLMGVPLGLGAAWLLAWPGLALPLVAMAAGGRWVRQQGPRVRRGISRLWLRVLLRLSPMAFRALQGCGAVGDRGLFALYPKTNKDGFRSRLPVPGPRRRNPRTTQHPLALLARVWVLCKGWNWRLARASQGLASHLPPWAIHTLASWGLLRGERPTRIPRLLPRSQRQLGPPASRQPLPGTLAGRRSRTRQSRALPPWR

[28] = target: Serine/threonine-protein kinase Nek7 (Homo sapiens) (UniProt Q8TDX7); assay: NEK7 DiscoveRx kinase panel; details: Compound concentration 1.0 uM
[29] = target: Calcium/calmodulin-dependent protein kinase type 1B (Homo sapiens) (UniProt Q6P2M8); assay: CAMK1B DiscoveRx kinase panel; details: Compound concentration 1.0 uM
[30] = target: Ribosomal protein S6 kinase beta-1 (Homo sapiens) (UniProt P23443); assay: S6K1 DiscoveRx kinase panel; details: Compound concentration 1.0 uM
[31] = target: Kappa-type opioid receptor (Homo sapiens) (UniProt P41145); details: Compound concentration 10.0 uM
[32] = target: Serine/threonine-protein kinase N2 (Homo sapiens) (UniProt Q16513); assay: PKN2 DiscoveRx kinase panel; details: Compound concentration 1.0 uM
[33] = target: Ephrin type-B receptor 2 (Homo sapiens) (UniProt P29323); assay: EPHB2 DiscoveRx kinase panel; details: Compound concentration 1.0 uM
[34] = target: Mitotic checkpoint serine/threonine-protein kinase BUB1 (Homo sapiens, UniProt O43683); assay: TR-FRET
Homo sapiens = species: Homo sapiens; assay: Chemokine CCR1 Eurofins-Panlabs radioligand binding assay; design: ligand concentration 0.1 nM; details: Compound concentration 10.0 uM
[35] = target: NT-3 growth factor receptor (Homo sapiens) (UniProt Q16288); assay: TRKC DiscoveRx kinase panel; details: Compound concentration 1.0 uM
[36] = target: BMP-2-inducible protein kinase (Homo sapiens) (UniProt Q9NSY1); assay: BIKE DiscoveRx kinase panel; details: Compound concentration 1.0 uM
[37] = target: Cyclin-dependent kinase 11B (Homo sapiens) (UniProt P21127); assay: CDC2L1 DiscoveRx kinase panel; details: Compound concentration 1.0 uM
[38] = target: Testis-specific serine/threonine-protein kinase 3 (Homo sapiens) (UniProt Q96PN8); assay: TSSK3 DiscoveRx kinase panel; details: Compound concentration 1.0 uM
[39] = target: Tyrosine-protein kinase receptor TYRO3 (Homo sapiens) (UniProt Q06418); assay: TYRO3 DiscoveRx kinase panel; details: Compound concentration 1.0 uM
[40] = target: NUAK family SNF1-like kinase 2 (Homo sapiens) (UniProt Q9H093); assay: SNARK DiscoveRx kinase panel; details: Compound concentration 1.0 uM
[41] = target: Ribosomal protein S6 kinase alpha-1 (Homo sapiens) (UniProt Q15418); assay: RSK1(Kin.Dom.2-C-terminal) DiscoveRx kinase panel; details: Compound concentration 1.0 uM
[42] = target: Myosin light chain kinase 2, skeletal/cardiac muscle (Homo sapiens) (UniProt Q9H1R3); assay: MYLK2 DiscoveRx kinase panel; details: Compound concentration 1.0 uM
[43] = target: Casein kinase I isoform delta (Homo sapiens) (UniProt P48730); assay: CSNK1D DiscoveRx kinase panel; details: Compound concentration 1.0 uM
[44] = target: Cyclin-dependent kinase 11A (Homo sapiens) (UniProt Q9UQ88); assay: CDC2L2 DiscoveRx kinase panel; details: Compound concentration 1.0 uM
[45] = target: Mitogen-activated protein kinase kinase kinase 13 (Homo sapiens) (UniProt O43283); assay: LZK DiscoveRx kinase panel; details: Compound concentration 1.0 uM
[46] = target: Fibroblast growth factor receptor 3 (Homo sapiens) (UniProt P22607); assay: FGFR3 DiscoveRx kinase panel; details: Compound concentration 1.0 uM
[47] = target: Muscarinic acetylcholine receptor M5 (Homo sapiens) (UniProt P08912); details: Compound concentration 10.0 uM
[48] = target: Serine/threonine-protein kinase ULK2 (Homo sapiens) (UniProt Q8IYT8); assay: ULK2 DiscoveRx kinase panel; details: Compound concentration 1.0 uM
[49] = target: Casein kinase I isoform gamma-3 (Homo sapiens) (UniProt Q9Y6M4); assay: CSNK1G3 DiscoveRx kinase panel; details: Compound concentration 1.0 uM
[50] = target: Mitogen-activated protein kinase 7 (Homo sapiens) (UniProt Q13164); assay: ERK5 DiscoveRx kinase panel; details: Compound concentration 1.0 uM

## COc1cnccc1Nc1nc(-c2nn(Cc3c(F)cc(OCCO)cc3F)c3ccccc23)ncc1OC
[1]
  residual activity: 100%
[2]
  residual activity: 92%
[3]
  residual activity: 76%
[4]
  residual activity: 100%
[5]
  residual activity: 97%
[6]
  residual activity: 100%
[7]
  residual activity: 83%
[8]
  inhibition: 3.66%
[9]
  residual activity: 90%
[10]
  residual activity: 100%
[11]
  residual activity: 100%
[12]
  inhibition: 15%
[13]
  residual activity: 82%
[14]
  residual activity: 65%
[15]
  residual activity: 100%
[16]
  residual activity: 88%
[17]
  residual activity: 100%
[18]
  residual activity: 100%
[19]
  residual activity: 100%
[20]
  residual activity: 100%
[21]
  residual activity: 100%
[22]
  residual activity: 79%
[23]
  residual activity: 100%
[24]
  residual activity: 100%
[25]
  residual activity: 92%
[26]
  residual activity: 96%
[27]
  residual activity: 100%
[28]
  residual activity: 78%
[29]
  residual activity: 95%
[30]
  residual activity: 100%
[31]
  inhibition: 26%
[32]
  residual activity: 97%
[33]
  residual activity: 100%
[34]
  EC50: 6.1 nM (active)
Homo sapiens
  inhibition: -4%
[35]
  residual activity: 98%
[36]
  residual activity: 74%
[37]
  residual activity: 91%
[38]
  residual activity: 90%
[39]
  residual activity: 56%
[40]
  residual activity: 99%
[41]
  residual activity: 100%
[42]
  residual activity: 69%
[43]
  residual activity: 68%
[44]
  residual activity: 100%
[45]
  residual activity: 53%
[46]
  residual activity: 100%
[47]
  inhibition: 8.89%
[48]
  residual activity: 100%
[49]
  residual activity: 100%
[50]
  residual activity: 94%
